Results from ChEMBL document CHEMBL1135273, “5-Phosphonomethylquinoxalinediones as competitive NMDA receptor antagonists with a preference for the human 1A/2A, rather than 1A/2B receptor composition” (Bioorg Med Chem Lett, 2002).
Calls of active or inactive are those of the source. The calls are words filed in the database; no cut-off is given here.

Legend:
[1] = molecular target: Glutamate [NMDA] receptor; assay: In vitro inhibitory activity at 1 uM concentration against N-methyl-D-aspartate glutamate receptor, using [3H]CGP-39653 binding assay; type: protein-complex assay
[2] = test system: Glutamate [NMDA] receptor; assay: The compound was tested in vitro for its inhibitory activity at 1 uM concentration against N-methyl-D-aspartate glutamate receptor by using [3H]CGP-39653 binding assay; Inactive; type: protein-complex assay
[3] = organism: Mus musculus; assay: Anticonvulsant effect in mouse electroshock-induced seizure test (MES).; type: functional
[4] = molecular target: Glutamate NMDA receptor; GRIN1/GRIN2A (Homo sapiens, UniProt Q05586+Q12879); assay: Inhibitory activity against Xenopus laevis oocyte expressing 1A/2A heteromeric human NMDA (hNMDA) receptor; type: protein-complex assay
Glutamate NMDA receptor; GRIN1/GRIN2A, sequence (Q12879 whole entry, other chains not shown): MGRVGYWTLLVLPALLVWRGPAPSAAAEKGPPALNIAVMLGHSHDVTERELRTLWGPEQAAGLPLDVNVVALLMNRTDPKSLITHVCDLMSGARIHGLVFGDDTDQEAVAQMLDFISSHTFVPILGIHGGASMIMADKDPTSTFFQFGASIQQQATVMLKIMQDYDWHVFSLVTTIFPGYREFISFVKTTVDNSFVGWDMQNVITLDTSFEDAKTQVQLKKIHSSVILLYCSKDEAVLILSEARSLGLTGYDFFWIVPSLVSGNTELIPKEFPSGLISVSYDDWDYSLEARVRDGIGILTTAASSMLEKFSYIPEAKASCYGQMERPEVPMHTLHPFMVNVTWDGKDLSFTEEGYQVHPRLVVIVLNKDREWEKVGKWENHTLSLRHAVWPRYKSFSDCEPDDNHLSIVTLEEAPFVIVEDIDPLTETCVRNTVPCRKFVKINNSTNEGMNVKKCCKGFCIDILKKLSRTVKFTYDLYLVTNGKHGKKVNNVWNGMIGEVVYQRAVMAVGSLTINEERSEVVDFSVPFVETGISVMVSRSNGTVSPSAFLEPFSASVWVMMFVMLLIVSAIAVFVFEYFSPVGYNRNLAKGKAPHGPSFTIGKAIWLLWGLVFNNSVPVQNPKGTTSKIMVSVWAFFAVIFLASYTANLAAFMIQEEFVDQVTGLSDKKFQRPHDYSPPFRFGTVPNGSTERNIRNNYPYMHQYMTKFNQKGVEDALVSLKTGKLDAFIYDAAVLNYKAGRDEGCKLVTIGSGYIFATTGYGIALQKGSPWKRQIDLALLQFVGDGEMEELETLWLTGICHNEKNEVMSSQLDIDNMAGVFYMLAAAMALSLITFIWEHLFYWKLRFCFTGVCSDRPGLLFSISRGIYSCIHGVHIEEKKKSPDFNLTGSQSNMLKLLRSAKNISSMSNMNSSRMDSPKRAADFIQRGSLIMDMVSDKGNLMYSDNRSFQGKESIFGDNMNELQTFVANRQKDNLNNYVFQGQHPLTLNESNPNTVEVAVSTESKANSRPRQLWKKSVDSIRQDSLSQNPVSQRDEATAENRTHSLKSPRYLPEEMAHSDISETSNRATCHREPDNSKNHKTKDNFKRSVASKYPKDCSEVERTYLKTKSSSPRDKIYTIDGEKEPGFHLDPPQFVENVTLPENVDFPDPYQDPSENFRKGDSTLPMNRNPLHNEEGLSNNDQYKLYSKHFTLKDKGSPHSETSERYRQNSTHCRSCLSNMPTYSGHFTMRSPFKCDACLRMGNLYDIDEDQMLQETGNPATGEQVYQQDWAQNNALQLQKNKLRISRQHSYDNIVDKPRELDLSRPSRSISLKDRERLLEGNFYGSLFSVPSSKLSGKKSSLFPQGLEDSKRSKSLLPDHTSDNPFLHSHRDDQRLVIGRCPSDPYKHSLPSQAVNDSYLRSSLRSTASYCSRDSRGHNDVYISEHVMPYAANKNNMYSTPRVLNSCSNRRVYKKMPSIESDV

[5] = molecular target: Glutamate NMDA receptor; GRIN1/GRIN2B (Homo sapiens, UniProt Q05586+Q13224); assay: Inhibitory activity against Xenopus laevis oocyte expressing 1A/2B heteromeric human NMDA (hNMDA) receptor; type: protein-complex assay
Glutamate NMDA receptor; GRIN1/GRIN2B, sequence (Q13224 whole entry, other chains not shown): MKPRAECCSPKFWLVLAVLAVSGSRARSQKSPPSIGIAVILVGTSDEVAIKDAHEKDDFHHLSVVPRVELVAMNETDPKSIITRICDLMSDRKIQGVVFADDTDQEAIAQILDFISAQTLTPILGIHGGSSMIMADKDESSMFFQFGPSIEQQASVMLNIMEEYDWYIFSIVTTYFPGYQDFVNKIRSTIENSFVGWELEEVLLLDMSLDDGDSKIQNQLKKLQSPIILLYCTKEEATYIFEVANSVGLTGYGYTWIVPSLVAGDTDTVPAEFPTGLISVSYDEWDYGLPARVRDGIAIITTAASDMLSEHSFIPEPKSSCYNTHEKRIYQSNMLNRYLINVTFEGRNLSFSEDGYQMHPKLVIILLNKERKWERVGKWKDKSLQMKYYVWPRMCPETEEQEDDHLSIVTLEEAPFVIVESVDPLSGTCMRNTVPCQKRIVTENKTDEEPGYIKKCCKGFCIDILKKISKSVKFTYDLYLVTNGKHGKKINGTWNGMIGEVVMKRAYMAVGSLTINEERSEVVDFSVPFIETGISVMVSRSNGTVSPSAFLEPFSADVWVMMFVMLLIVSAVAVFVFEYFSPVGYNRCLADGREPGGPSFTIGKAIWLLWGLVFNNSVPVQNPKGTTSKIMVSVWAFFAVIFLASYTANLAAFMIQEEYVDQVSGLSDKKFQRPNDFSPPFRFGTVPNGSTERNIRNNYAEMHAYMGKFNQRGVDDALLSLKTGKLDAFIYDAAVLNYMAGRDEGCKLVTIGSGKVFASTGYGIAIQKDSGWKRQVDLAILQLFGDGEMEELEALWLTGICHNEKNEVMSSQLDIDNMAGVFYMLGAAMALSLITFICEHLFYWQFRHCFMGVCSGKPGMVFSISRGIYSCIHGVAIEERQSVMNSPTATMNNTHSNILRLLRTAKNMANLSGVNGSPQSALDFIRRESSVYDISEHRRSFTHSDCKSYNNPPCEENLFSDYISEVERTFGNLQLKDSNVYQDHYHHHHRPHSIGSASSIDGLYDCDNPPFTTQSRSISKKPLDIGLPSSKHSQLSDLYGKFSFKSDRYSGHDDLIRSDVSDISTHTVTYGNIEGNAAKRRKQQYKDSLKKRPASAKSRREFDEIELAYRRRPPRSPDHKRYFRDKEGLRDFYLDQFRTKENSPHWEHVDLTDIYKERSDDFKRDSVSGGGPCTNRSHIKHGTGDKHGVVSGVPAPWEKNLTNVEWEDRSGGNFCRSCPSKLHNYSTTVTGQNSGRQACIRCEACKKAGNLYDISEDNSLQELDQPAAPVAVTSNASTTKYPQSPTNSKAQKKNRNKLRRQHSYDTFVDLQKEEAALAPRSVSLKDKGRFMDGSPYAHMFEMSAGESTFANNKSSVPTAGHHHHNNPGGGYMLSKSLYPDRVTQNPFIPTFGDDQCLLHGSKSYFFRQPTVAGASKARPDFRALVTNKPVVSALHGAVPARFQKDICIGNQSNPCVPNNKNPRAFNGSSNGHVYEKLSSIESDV

[6] = test system: GRIN1/GRIN2A vs GRIN1/GRIN2B (Homo sapiens); assay: Ratio of human NMDA 1A/2A receptor to human NMDA 1A/2B receptor was determined in xenopus oocytes; 1/50; conditions: Oocyte
[7] = test system: GRIN1/GRIN2A vs GRIN1/GRIN2B (Homo sapiens); assay: Ratio of human NMDA 1A/2A receptor to human NMDA 1A/2B receptor was determined in xenopus oocytes; 1/9; conditions: Oocyte
[8] = test system: GRIN1/GRIN2A vs GRIN1/GRIN2B (Homo sapiens); assay: Ratio of human NMDA 1A/2A receptor to human NMDA 1A/2B receptor was determined in xenopus oocytes; 1/111; conditions: Oocyte
[9] = test system: GRIN1/GRIN2A vs GRIN1/GRIN2B (Homo sapiens); assay: Ratio of human NMDA 1A/2A receptor to human NMDA 1A/2B receptor was determined in xenopus oocytes; 1/8; conditions: Oocyte
[10] = test system: GRIN1/GRIN2A vs GRIN1/GRIN2B (Homo sapiens); assay: Ratio of human NMDA 1A/2A receptor to human NMDA 1A/2B receptor was determined in xenopus oocytes; 1/40; conditions: Oocyte
[11] = test system: GRIN1/GRIN2A vs GRIN1/GRIN2B (Homo sapiens); assay: Ratio of human NMDA 1A/2A receptor to human NMDA 1A/2B receptor was determined in xenopus oocytes; 1/14; conditions: Oocyte
[12] = test system: GRIN1/GRIN2A vs GRIN1/GRIN2B (Homo sapiens); assay: Ratio of human NMDA 1A/2A receptor to human NMDA 1A/2B receptor was determined in xenopus oocytes; 1/10; conditions: Oocyte
[13] = test system: Mus musculus; assay: Compound at a dose 50 mg/kg was administered intraperitoneally into mouse and percent protection was determined after 1 hour; type: functional; conditions: route intraperitoneal
[14] = test system: GRIN1/GRIN2A vs GRIN1/GRIN2B (Homo sapiens); assay: Ratio of human NMDA 1A/2A receptor to human NMDA 1A/2B receptor was determined in xenopus oocytes; 1/13; conditions: Oocyte
[15] = Compound was tested in vitro for its inhibitory activity against Xenopus laevis oocyte expressing 1A/2A heteromeric human NMDA (hNMDA) receptor
[16] = test system: GRIN1/GRIN2A vs GRIN1/GRIN2B (Homo sapiens); assay: Ratio of human NMDA 1A/2A receptor to human NMDA 1A/2B receptor was determined in xenopus oocytes; 1/15; conditions: Oocyte
[17] = Compound was tested in vitro for its inhibitory activity against Xenopus laevis oocyte expressing 1A/2B heteromeric human NMDA (hNMDA) receptor
[18] = test system: Mus musculus; assay: Compound was evaluated for its anticonvulsant effect in mouse electroshock-induced seizure test (MES), 8 hr after intraperitoneal administration; type: functional; conditions: ip
[19] = molecular target: Glutamate [NMDA] receptor; assay: Compound was tested in vitro for its inhibitory activity at 1 uM concentration against N-methyl-D-aspartate glutamate receptor by using [3H]CGP-39653 binding assay; type: protein-complex assay
[20] = test system: Mus musculus; assay: Compound was evaluated for its anticonvulsant effect in mouse electroshock-induced seizure test (MES), 8 hr after oral administration; type: functional
[21] = test system: GRIN1/GRIN2A vs GRIN1/GRIN2B (Homo sapiens); assay: Ratio of human NMDA 1A/2A receptor to human NMDA 1A/2B receptor was determined in xenopus oocytes; 1/1; conditions: Oocyte
[22] = test system: GRIN1/GRIN2A vs GRIN1/GRIN2B (Homo sapiens); assay: Ratio of human NMDA 1A/2A receptor to human NMDA 1A/2B receptor was determined in xenopus oocytes; 1/11; conditions: Oocyte
[23] = test system: GRIN1/GRIN2A vs GRIN1/GRIN2B (Homo sapiens); assay: Ratio of human NMDA 1A/2A receptor to human NMDA 1A/2B receptor was determined in xenopus oocytes; 1/7; conditions: Oocyte
[24] = molecular target: Glutamate [NMDA] receptor (Homo sapiens) (UniProt Q05586+Q12879+Q13224+O15399+O60391+Q14957+Q8TCU5); assay: The compound was tested in vitro for percent inhibition at 1 uM concentration against N-methyl-D-aspartate glutamate receptor by using [3H]CGP-39653 binding assay; type: protein-complex assay
[25] = test system: GRIN1/GRIN2A vs GRIN1/GRIN2B (Homo sapiens); assay: Ratio of human NMDA 1A/2A receptor to human NMDA 1A/2B receptor was determined in xenopus oocytes; >1/17; conditions: Oocyte
[26] = test system: GRIN1/GRIN2A vs GRIN1/GRIN2B (Homo sapiens); assay: Ratio of human NMDA 1A/2A receptor to human NMDA 1A/2B receptor was determined in xenopus oocytes; 1/26; conditions: Oocyte

IC50 [1] [µM]	IC50 [4] [µM]	IC50 [5] [µM]	Compound	ED50 [3] [mg/kg]	further results
0.001			O=P(O)(O)Cc1cc(F)cc2nc(O)c(O)nc12		
0.25			O=C(O)Cc1cccc2nc(O)c(O)nc12		
			O=P(O)(O)Cc1ccc2nc(O)c(O)nc2c1		IC50 [2]: Not Active
0.003			Cl.O=[N+]([O-])c1cc(C(NCC2CCCCC2)P(=O)(O)O)c2nc(O)c(O)nc2c1 (configuration not stated)	4	
0.0017			O=P(O)(O)Cc1cc(Cl)cc2nc(O)c(O)nc12	2.4	
0.0097	0.018	0.9	C[C@H](NC(c1cccc2nc(O)c(O)nc12)P(=O)(O)O)c1ccccc1 (some centres not stated)	6.7	Ratio [6]: Active
0.0008	0.0002	0.0018	O=P(O)(O)Cc1cc(-c2ccc(Cl)cc2)cc2nc(O)c(O)nc12	0.7	Ratio [7]: Active
			C[C@H](NC(c1cccc2nc(O)c(O)nc12)P(=O)(O)O)c1ccc(Br)cc1 (some centres not stated)	23	Ratio [8]: Active
0.0081			CC(=O)OC(c1cc([N+](=O)[O-])cc2nc(O)c(O)nc12)P(=O)(O)O (configuration not stated)	5	
0.038	0.17	1.5	O=P(O)(O)C(NC(c1ccccc1)c1ccccc1)c1cccc2nc(O)c(O)nc12 (configuration not stated)	2.3	Ratio [7]: Active
0.86	2.8	24	CC(=O)N(C)C(c1cccc2nc(O)c(O)nc12)P(=O)(O)O (configuration not stated)		Ratio [7]: Active
0.002	0.0042	0.034	Br.O=P(O)(O)C(NCc1ccccc1)c1cccc2nc(O)c(O)nc12 (configuration not stated)	2	Ratio [9]: Active
0.0074	0.04	1.6	O=P(O)(O)C(NCCc1ccccc1)c1cccc2nc(O)c(O)nc12 (configuration not stated)	10	Ratio [10]: Active
1.1	0.79	6.2	CNC(c1cccc2nc(O)c(O)nc12)P(=O)(O)O (configuration not stated)		Ratio [9]: Active
0.0015			Br.O=[N+]([O-])c1cc(C(NCc2ccccc2)P(=O)(O)O)c2nc(O)c(O)nc2c1 (configuration not stated)	1.5	
0.12	0.06	0.82	O=P(O)(O)C(N[C@H]1CCc2ccccc21)c1cccc2nc(O)c(O)nc12 (some centres not stated)	2	Ratio [11]: Active
0.065	0.09	0.93	CCCNC(c1cc([N+](=O)[O-])cc2nc(O)c(O)nc12)P(=O)(O)O.Cl (configuration not stated)	2.8	Ratio [12]: Active

IC50 [1] [µM]	IC50 [4] [µM]	IC50 [5] [µM]	Compound	ED50 [3] [mg/kg]	further results
0.16	0.6	30	CN(Cc1ccccc1)C(c1cccc2nc(O)c(O)nc12)P(=O)(O)O (configuration not stated)		Protection [13]: 40%; Ratio [6]: Active
0.37	0.11	1.4	COC(=O)NC(c1cc([N+](=O)[O-])cc2nc(O)c(O)nc12)P(=O)(O)O (configuration not stated)	8.8	Ratio [14]: Active
0.008	0.27	29.6	C[C@H](NC(c1cccc2[nH]c(=O)c(=O)[nH]c12)P(=O)(O)O)c1ccc(Br)cc1 (some centres not stated)		
0.04			Cl.NC(c1cc([N+](=O)[O-])cc2nc(O)c(O)nc12)P(=O)(O)O (configuration not stated)	11.6	
			O=P(O)(O)Cc1cccc2nc(O)c(O)nc12	0.7	IC50 [15]: 0.002 µM; Ratio [16]: Active; IC50 [17]: 0.03 µM; ED50 [18]: 1.1 mg/kg; IC50 [19]: 0.0005 µM; ED50 [20]: 6.7 mg/kg
0.0015	0.0011	0.0007	O=P(O)(O)C(O)c1cccc2nc(O)c(O)nc12 (configuration not stated)	0.5	Ratio [21]: Active
0.031	0.05	0.57	C[C@@H](NC(c1cccc2nc(O)c(O)nc12)P(=O)(O)O)c1ccccc1 (some centres not stated)		Ratio [22]: Active; Protection [13]: 60%
0.0015			O=P(O)(O)Cc1cc(Br)cc2nc(O)c(O)nc12	2.5	
0.08	0.2	1.3	Br.CP(=O)(O)C(NCc1ccccc1)c1cc([N+](=O)[O-])cc2nc(O)c(O)nc12 (configuration not stated)		Ratio [23]: Active; Protection [13]: 0%
0.0012			O=[N+]([O-])c1cc(C(O)P(=O)(O)O)c2nc(O)c(O)nc2c1 (configuration not stated)	1.2	
			CP(=O)(O)C(O)c1cc([N+](=O)[O-])cc2nc(O)c(O)nc12 (configuration not stated)		inhibition [24]: 42%; Protection [13]: 0%
0.027	1.7	> 30	C[C@H](NC(c1cccc2nc(O)c(O)nc12)P(=O)(O)O)c1cccc2ccccc12 (some centres not stated)	15	Ratio [25]: Active
0.06	0.05	1.3	Br.O=[N+]([O-])c1cc(C(NCc2ccccc2)P(=O)(O)Cc2ccccc2)c2nc(O)c(O)nc2c1 (configuration not stated)		Ratio [26]: Active; Protection [13]: 20%
0.0041			Br.O=[N+]([O-])c1cc(C(NCc2ccco2)P(=O)(O)O)c2nc(O)c(O)nc2c1 (configuration not stated)	3.7	
0.13	0.49	6.2	O=P(O)(O)C(Nc1ccccc1)c1cccc2nc(O)c(O)nc12 (configuration not stated)		Ratio [9]: Active; Protection [13]: 0%
0.017			COC(c1cc([N+](=O)[O-])cc2nc(O)c(O)nc12)P(=O)(O)O (configuration not stated)		
